# Results: patent US9376438B2, “Pyrazolopyrimidine derivatives as tyrosine kinase inhibitors” (Principia Biopharma, Inc., priority 2011, dated 2016)
# Target: human recombinant Btk (Homo sapiens, UniProt Q06187)
# Assay: Btk Enzymatic Activity Assay (Caliper-based kinase assay)
# Type: biochemical
# Settings: human recombinant Btk 2 nM, ATP 40 μM, peptide substrate 1 μM, room temperature, 3 h; read-out: IC50 (inhibition of Btk kinase activity)
# Protocol: A Caliper-based kinase assay (Caliper Life Sciences, Hopkinton, Mass.) was used to measure inhibition of Btk kinase activity of a compound of Formula (I). Serial dilutions of test compounds were incubated with human recombinant Btk (2 nM), ATP (40 μM) and a phosphoacceptor peptide substrate FAM-GEEPLYWSFPAKKK-NH2 (1 μM) at room temperature for 3 h. The reaction was then terminated with EDTA, final concentration 20 mM and the phosphorylated reaction product was quantified on a Caliper Desktop Profiler (Caliper LabChip 3000). Percent inhibition was calculated for each compound dilution and the concentration that produced 50% inhibition was calculated. This value is presented as the IC50.
# Chain of human recombinant Btk (Q06187 whole entry): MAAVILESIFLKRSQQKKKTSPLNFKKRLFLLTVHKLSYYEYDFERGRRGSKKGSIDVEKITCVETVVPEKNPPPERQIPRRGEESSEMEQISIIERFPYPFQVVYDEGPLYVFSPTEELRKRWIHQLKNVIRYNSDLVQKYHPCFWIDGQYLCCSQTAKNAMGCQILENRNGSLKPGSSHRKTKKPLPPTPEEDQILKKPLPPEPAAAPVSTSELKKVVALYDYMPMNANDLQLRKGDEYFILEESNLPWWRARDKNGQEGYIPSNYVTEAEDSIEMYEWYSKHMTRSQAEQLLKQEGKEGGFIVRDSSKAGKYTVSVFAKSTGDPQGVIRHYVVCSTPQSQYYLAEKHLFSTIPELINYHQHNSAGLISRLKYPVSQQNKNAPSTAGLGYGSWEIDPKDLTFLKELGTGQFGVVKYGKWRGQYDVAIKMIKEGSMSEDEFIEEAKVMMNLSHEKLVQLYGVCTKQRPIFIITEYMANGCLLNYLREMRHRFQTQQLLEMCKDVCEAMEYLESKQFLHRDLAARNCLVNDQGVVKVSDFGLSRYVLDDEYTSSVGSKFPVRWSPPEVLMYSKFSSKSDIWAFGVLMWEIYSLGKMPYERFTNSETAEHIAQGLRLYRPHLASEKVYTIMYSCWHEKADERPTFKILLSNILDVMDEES
row,IC50 [µM],Structure (SMILES)
1,0.203,"Nc1ncnc2c1c(-c1ccc(Oc3ccccc3)cc1)nn2C[C@H]1CCCN1C(=O)C(F)=CC1CC1 [Example 1, (R)-1-(2-((4-amino-3-(4-phenoxyphenyl)-1H-pyrazolo[3,4-d]pyrimidin-1-yl)methyl)pyrrolidin-1-yl)-3-cyclopropyl-2-fluoroprop-2-en-1-one]"
2,0.041,"Nc1ncnc2c1c(-c1ccc(Oc3ccccc3)cc1)nn2C[C@H]1CCCN1C(=O)C(=CC1CC1)C(F)(F)F [Example 2, (R)-1-(2-((4-amino-3-(4-phenoxyphenyl)-1H-pyrazolo[3,4-d]pyrimidin-1-yl)methyl)pyrrolidin-1-yl)-3-cyclopropyl-2-(trifluoromethyl)prop-2-en-1-one]"
3,0.023,"Nc1ncnc2c1c(-c1ccc(Oc3ccccc3)cc1)nn2CCCN1C(=O)SC(=CC2CC2)C1=O [Example 3, 3-(3-(4-amino-3-(4-phenoxyphenyl)-1H-pyrazolo[3,4-d]pyrimidin-1-yl)propyl)-5-(cyclopropylmethylene)thiazolidine-2,4-dione]"
4,0.86,"Nc1ncnc2c1c(-c1ccc(Oc3ccccc3)cc1)nn2CCN1C(=O)SC(=Cc2ccccc2)C1=O [Example 4, 3-(2-(4-amino-3-(4-phenoxyphenyl)-1H-pyrazolo[3,4-d]pyrimidin-1-yl)ethyl)-5-benzylidenethiazolidine-2,4-dione]"
5,0.049,"Nc1ncnc2c1c(-c1ccc(Oc3ccccc3)cc1)nn2CCN1C(=O)SC(=CC2CC2)C1=O [Example 5, 3-(2-(4-amino-3-(4-phenoxyphenyl)-1H-pyrazolo[3,4-d]pyrimidin-1-yl)ethyl)-5-(cyclopropylmethylene)thiazolidine-2,4-dione]"
